Reference: US20240174762A1, “METHODS, COMPOSITIONS AND USES FOR TARGETING SEMA7A IN THE DIAGNOSIS AND TREATMENT OF HEALTH CONDITIONS” (THE REGENTS OF THE UNIVERSITY OF COLORADO, A BODY CORPORATE, priority 2021, published 2024)

System: human MCF7 model of ER+ breast cancer
Assay: ER+ SEMA7A expressing tumors, human MCF7 model
Type: in vivo, mice
Details: FIG. 11
Source text: FIGS. 11A-11H represents various graphs and images of tumor analysis and treatment according to various aspects of the disclosure. (A) represents analysis for relapse free survival of breast cancer patients treated with endocrine therapy assessed for SEMA7A levels; (B) MCF7 tumor cell growth in mice treated with endocrine therapy (e.g., Fulvestrant); (C) Lung metastasis of MCF7 in mice from 11B; (D) is a representative image illustrating BCL2 expression in SEMA7A OE cells; (E) MCF7 tumor growth in mice treated with endocrine therapy and a Bcl-2 inhibitor (e.g., Venetoclax) indicated by the arrows; (F) Lung metastasis in mice from […] above; (G) illustrates clonogenic growth of MCF7 EV or SEMA7A OE cells treated with 5 μM SU6656; clonogenic data are normalized to vehicle controls; and (H) represents clonogenic growth of MCF7 EV or SEMA7A OE cells treated with a composition according to various aspects of the disclosure.
In another exemplary method, ER+SEMA7A expressing tumors are resistant to anti-estrogen-based therapy (Fulvestrant), anti-CDK4/6 therapy (Palbociclib), and chemotherapy but are sensitive to inhibition of cell survival pathways. […]

Q: Which “response of ER+SEMA7A expressing tumors to therapy” value does the source give for C[C@]12CC[C@@H]3c4ccc(O)cc4C[C@@H](CCCCCCCCC[S+]([O-])CCCC(F)(F)C(F)(F)F)[C@H]3[C@@H]1CC[C@@H]2O (stereo partly shown) [Fulvestrant] here?
A: resistant
